Measured values published in patent publication US8642594B2, “Substituted thieno[2,3-d]pyrimidines as HSP90 inhibitors” (Vernalis (R&D) Limited, priority 2003, dated 2014).

Biological target: T1, Human full-length Hsp90 (Homo sapiens, UniProt P08238)
T1 construct: E. coli expressed human full-length HSP90 protein, purified >95%; made in house; host or cells: E. coli
Assay: Fluorescence polarization assay (competitive binding to HSP90, probe RBT0045864-FAM)
Conditions: not given
Description: Fluorescence Polarization Assay
Fluorescence polarization {also known as fluorescence anisotropy} measures the rotation of a fluorescing species in solution, where the larger molecule the more polarized the fluorescence emission. When the fluorophore is excited with polarized light, the emitted light is also polarized. The molecular size is proportional to the polarization of the fluorescence emission.
The fluoroscein-labelled probe—RBT0045864-FAM—
Test compound is added to the assay plate, left to equilibrate and the anisotropy measured again. Any change in anisotropy is due to competitive binding of compound to HSP90, thereby releasing probe.
Stored at room temperature. • 3) BSA (bovine serum albumen) 10 mg/ml (New England Biolabs #B9001S) • 4) 20 mM probe in 100% DMSO stock concentration. Stored in the dark at RT. Working concentration is 200 nM diluted in AR water and stored at 4° C. […] Protocol • 1) Add 100 μl 1× buffer to wells 11A and 12A (=FP BLNK) • 2) Prepare assay mix—all reagents are kept on ice with a lid on the bucket as the probe is light-sensitive.
This gives 2.5 mM {50×} stock cpd—assuming cpds 20 mM. • 4) Repeat for wells A2 to A10. Control in columns 11 and 12. • 5) Transfer 5 μl from row A to row B—not column 12. Mix well. • 6) Transfer 5 μl from row B to row C. […] Add 2 μl of 100 mM standard cpd to wells B12-H12 {is positive control} • 13) The Z′ factor is calculated from zero controls and positive wells.

T1 sequence (P08238 whole entry): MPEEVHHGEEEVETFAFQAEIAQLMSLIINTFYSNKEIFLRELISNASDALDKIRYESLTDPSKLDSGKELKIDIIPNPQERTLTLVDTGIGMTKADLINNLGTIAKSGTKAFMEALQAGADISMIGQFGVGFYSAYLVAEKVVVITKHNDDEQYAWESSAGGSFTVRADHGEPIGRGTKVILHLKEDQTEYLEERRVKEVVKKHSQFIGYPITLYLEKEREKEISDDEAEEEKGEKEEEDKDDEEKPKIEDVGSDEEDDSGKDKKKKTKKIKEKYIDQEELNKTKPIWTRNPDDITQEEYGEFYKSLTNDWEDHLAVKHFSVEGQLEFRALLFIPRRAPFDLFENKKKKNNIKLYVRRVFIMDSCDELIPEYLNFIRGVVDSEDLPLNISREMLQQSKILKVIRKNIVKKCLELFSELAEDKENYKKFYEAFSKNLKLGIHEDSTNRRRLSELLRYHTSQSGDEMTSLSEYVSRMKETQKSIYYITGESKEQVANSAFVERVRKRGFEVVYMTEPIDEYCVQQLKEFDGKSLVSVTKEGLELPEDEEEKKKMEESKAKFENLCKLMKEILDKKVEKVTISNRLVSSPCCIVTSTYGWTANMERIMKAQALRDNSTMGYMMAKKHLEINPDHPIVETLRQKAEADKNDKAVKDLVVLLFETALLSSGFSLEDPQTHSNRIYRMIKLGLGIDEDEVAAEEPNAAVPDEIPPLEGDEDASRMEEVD

Compound	IC50
CCNC(=O)c1cc2c(-c3cc(OCC#N)c(Cl)cc3Cl)nc(N)nc2s1 [Example 270]	< 10 µM
CCNC(=O)c1cc2c(-c3ccc(C#N)cc3C)nc(N)nc2s1 [Example 84]	< 10 µM
CCNC(=O)c1cc2c(-c3cc(OCCN4CCC(F)(F)CC4)c(Cl)cc3Cl)nc(N)nc2s1 [Example 250]	< 10 µM

Same assay, conditions: fluorescence polarization assay, activity range; read-out: Hsp90 FP IC50

IC50	Compound
< 10 µM	COCCCNC(=O)c1cc2c(-c3ccc(Cl)cc3Cl)nc(N)nc2s1 [Example 126]
< 10 µM	CCNC(=O)c1cc2c(-c3cc(OCC4CCCO4)c(Cl)cc3Cl)nc(N)nc2s1 (centres unmarked) [Example 262]
< 10 µM	CCNC(=O)c1cc2c(-c3cccc(OCc4ccccc4)c3)nc(N)nc2s1 [Example 243]
< 10 µM	CCNC(=O)c1cc2c(-c3cc(OCc4ccccc4)c(Cl)cc3Cl)nc(N)nc2s1 [Example 241]
< 10 µM	CCNC(=O)c1cc2c(-c3cc(CNCc4ccccn4)ccc3C)nc(N)nc2s1 [Example 216]
< 10 µM	CCNC(=O)c1cc2c(-c3cc(CNCCc4cnc[nH]4)ccc3C)nc(N)nc2s1 [Example 204]
< 10 µM	CCNC(=O)c1cc2c(/C=C/c3ccccc3)nc(N)nc2s1 [Example 286]
< 10 µM	CCCNCc1cc(-c2nc(N)nc3sc(C(=O)NCC)cc23)c(C)cc1C [Example 231]
< 10 µM	Cc1ccc(-c2nc(N)nc3sc(C(=O)NCCO)cc23)c(C)c1 [Example 82]
> 10 µM	Nc1nc(-c2ccccc2)c2cc(C(=O)NCCc3cccnc3)sc2n1 [Example 51]
< 10 µM	CCNC(=O)c1cc2c(-c3cc(CNCc4ccccc4)c(C)cc3C)nc(N)nc2s1 [Example 232]
< 10 µM	CCNC(=O)c1cc2c(-c3cc(CNC4CC4)ccc3C)nc(N)nc2s1 [Example 203]
< 10 µM	CCCNC(=O)c1ccc(C)c(-c2nc(N)nc3sc(C(=O)NC4CC4)cc23)c1 [Example 183]
< 10 µM	CCNC(=O)c1cc2c(-c3cc(CNCc4cccnc4)ccc3C)nc(N)nc2s1 [Example 217]
< 10 µM	Nc1nc(-c2ccc(Cl)cc2Cl)c2cc(C(=O)NCc3cccc(C(F)(F)F)c3)sc2n1 [Example 122]
> 10 µM	Nc1nc(-c2ccccc2)c2cc(C(=O)NCCc3cccs3)sc2n1 [Example 55]
< 10 µM	CCNC(=O)c1cc2c(-c3cc(CNCCc4cccs4)ccc3C)nc(N)nc2s1 [Example 214]
< 10 µM	CCNC(=O)c1cc2c(-c3cc(C)c(C)cc3C)nc(N)nc2s1 [Example 150]
< 10 µM	CCOC(=O)c1cc2c(-c3cc(Cl)ccc3C)nc(N)nc2s1 [Example 178]
< 10 µM	Nc1nc(-c2ccc(Cl)cc2Cl)c2cc(C(=O)NCc3cccnc3)sc2n1 [Example 123]
< 10 µM	CCNCc1ccc(C)c(-c2nc(N)nc3sc(C(=O)NCC)cc23)c1 [Example 206]
< 10 µM	CCNC(=O)c1cc2c(-c3cc(OCCN4CCOCC4)c(Cl)cc3Cl)nc(N)nc2s1 [Example 236, 2-Amino-4-[2,4-dichloro-5-(2-morpholin-4-yl-ethoxy)-phenyl]-thieno[2,3-d]pyrimidine-6-carboxylic acid ethyl amide]
< 10 µM	CCNC(=O)c1cc2c(-c3cc(CNCC4CCCO4)ccc3C)nc(N)nc2s1 (centres unmarked) [Example 223]
< 10 µM	Nc1nc(-c2ccc(Cl)cc2Cl)c2cc(C(=O)NCCS(N)(=O)=O)sc2n1 [Example 130]
> 10 µM	CCOC(=O)c1cc2c(-c3ccc(OCc4ccccc4)cc3C)nc(N)nc2s1 [Example 90]
< 10 µM	CCNC(=O)c1cc2c(-c3cc(CNCc4ccco4)ccc3C)nc(N)nc2s1 [Example 210]
< 10 µM	CCNC(=O)c1cc2c(-c3cc(OCc4ccccn4)c(Cl)cc3Cl)nc(N)nc2s1 [Example 261]
< 10 µM	CCNC(=O)c1cc2c(-c3cc(CNCC(C)C)ccc3C)nc(N)nc2s1 [Example 218]
< 10 µM	CCNC(=O)c1cc2c(-c3cc(CNCCC(N)=O)ccc3C)nc(N)nc2s1 [Example 208]

The next lines start with the compound.

Compound	IC50
CCOC(=O)c1cc2c(/C=C/c3ccc(Cl)cc3)nc(N)nc2s1 [Example 281]	< 10 µM
NC(=O)c1ccc(NC(=O)c2cc3c(-c4ccc(Cl)cc4Cl)nc(N)nc3s2)cc1 [Example 110]	< 10 µM
CCOC(=O)c1cc2c(C(=O)c3ccccc3F)nc(N)nc2s1 [Example 301]	< 10 µM
CCNC(=O)c1cc2c(-c3cc(OCC4CCCCN4C)c(Cl)cc3Cl)nc(N)nc2s1 (centres unmarked) [Example 273, 2-Amino-4-[2,4-dichloro-5-(1-methyl-piperidin-2-ylmethoxy)-phenyl]-thieno[2,3d]pyrimidine-6-carboxylic acid ethylamide]	< 10 µM
CCOC(=O)c1cc2c(-c3ccc(F)cc3)nc(N)nc2s1 [Example 10]	> 10 µM
Nc1nc(-c2ccccc2)c2cc(C(=O)NCCN3CCOCC3)sc2n1 [Example 46]	> 10 µM
CCOC(=O)c1cc2c(/C=C/c3ccc(F)cc3)nc(N)nc2s1 [Example 282]	< 10 µM
CNC(=O)c1cc2c(Oc3ccccc3)nc(N)nc2s1 [Example 27]	> 10 µM
NC(=O)[C@H](Cc1cnc[nH]1)NC(=O)c1cc2c(-c3ccc(Cl)cc3Cl)nc(N)nc2s1 [Example 164]	< 10 µM
CCOC(=O)c1cc2c(NCCCc3c[nH]nc3C)nc(N)nc2s1 [Example 37]	> 10 µM
Nc1nc(-c2ccc(Cl)cc2Cl)c2cc(C(=O)NCCCN3CCCC3)sc2n1 [Example 145]	< 10 µM
Nc1nc(-c2ccc(Cl)cc2Cl)c2cc(C(=O)NC3CN4CCC3CC4)sc2n1 (centres unmarked) [Example 158]	< 10 µM
CCOC(=O)CSc1nc(N)nc2sc(C(=O)OCC)cc12 [Example 20]	> 10 µM
Nc1nc(-c2ccc(Cl)cc2Cl)c2cc(C(=O)Nc3ccc(S(=O)(=O)O)cc3)sc2n1 [Example 112]	< 10 µM
Cc1ccc(-c2nc(N)nc3sc(C(=O)N4CCOCC4)cc23)c(C)c1 [Example 96]	> 10 µM
CCOC(=O)c1cc2c(-c3ccc(C#N)cc3)nc(N)nc2s1 [Example 16]	< 10 µM
CCOC(=O)c1cc2c(-c3cc(Cl)ccc3Cl)nc(N)nc2s1 [Example 106]	> 10 µM
CCOC(=O)c1cc2c(/C=C/c3cccc(OC)c3)nc(N)nc2s1 [Example 279]	< 10 µM
CC(C)C[C@H](NC(=O)c1cc2c(-c3ccc(Cl)cc3Cl)nc(N)nc2s1)C(N)=O [Example 161]	< 10 µM
COC(=O)c1cc2c(Nc3ccccc3)nc(N)nc2s1 [Example 21]	> 10 µM
CCOC(=O)c1cc2c(-c3ccc(OCCN(CC)CC)cc3C)nc(N)nc2s1 [Example 190]	> 10 µM

Compound	IC50
CCOC(=O)c1cc2c(-c3ccc(OCC(=O)OC(C)(C)C)cc3C)nc(N)nc2s1 [Example 192]	> 10 µM
CCOC(=O)c1cc2c(-c3cccc(Cl)c3)nc(N)nc2s1 [Example 14]	> 10 µM
CCOC(=O)c1cc2c(-c3ccsc3)nc(N)nc2s1 [Example 18]	> 10 µM
CCNC(=O)c1cc2c(-c3cc(OCCN4CCCCC4)c(Cl)cc3Cl)nc(N)nc2s1 [Example 238]	< 10 µM
CCOC(=O)c1cc2c(-c3ccc(C#N)cc3C)nc(N)nc2s1 [Example 32]	< 10 µM
CCOC(=O)c1cc2c(C(=O)c3cccc(C)c3C)nc(N)nc2s1 [Example 307]	< 10 µM
CCOC(=O)c1cc2c(-c3csc4ccccc34)nc(N)nc2s1 [Example 290]	> 10 µM
C=C(c1ccc(F)cc1)c1nc(N)nc2sc(C(=O)OCC)cc12 [Example 277]	< 10 µM
CCOC(=O)c1cc2c(-c3cccc(CN4CCCC4)c3)nc(N)nc2s1 [Example 7]	> 10 µM
CCNC(=O)c1cc2c(-c3cc(OCCNC4CCCCC4)c(Cl)cc3Cl)nc(N)nc2s1 [Example 245]	< 10 µM
CNC(=O)c1cc2c(Nc3ccccc3)nc(N)nc2s1 [Example 64]	> 10 µM
CCOC(=O)c1cc2c(-c3ccccc3)nc(N)nc2s1 [Example 1, 2-Amino-4-phenyl-thieno[2,3-d]pyrimidine-6-carboxylic acid ethyl ester]	< 10 µM
CCOC(=O)c1cc2c(-c3ccc(C(F)(F)F)cc3C(F)(F)F)nc(N)nc2s1 [Example 4]	< 10 µM
CCOC(=O)c1cc2c(-c3ccc(CN4CCCC4)cc3)nc(N)nc2s1 [Example 30]	> 10 µM
CCOC(=O)c1cc2c(NC(c3ccccc3)c3ccccc3)nc(N)nc2s1 [Example 25]	> 10 µM
Nc1nc(-c2ccccc2)c2cc(C(=O)N3CCOCC3)sc2n1 [Example 70]	> 10 µM
CCOC(=O)c1cc2c(Nc3ccc4cn[nH]c4c3)nc(N)nc2s1 [Example 39]	> 10 µM
CC(C)(NC(=O)c1cc2c(-c3ccc(Cl)cc3Cl)nc(N)nc2s1)c1ccccc1 [Example 140]	< 10 µM
CCOC(=O)c1cc2c(C(C)(O)c3ccc4c(c3)OCO4)nc(N)nc2s1 (centres unmarked) [Example 315, 2-Amino-4-(1-benzo[1,3]dioxol-5-yl-1-hydroxy-ethyl)-thieno[2,3-d]pyrimidine-6-carboxylic acid ethyl ester]	< 10 µM
Nc1nc(-c2ccccc2)c2cc(C(=O)NCCc3cnc[nH]3)sc2n1 [Example 57]	< 10 µM
CCOC(=O)c1cc2c(C(=O)c3cc(C)c(C)cc3C)nc(N)nc2s1 [Example 308]	< 10 µM
